# Species: Rattus norvegicus
# Assay: DrugMatrix - Regimen: Daily Repeat
# Type: toxicity, organism-based, Sprague-Dawley
# Design: regimen Daily Repeat, gender Male, age 6-8 weeks
# Conditions: in vivo, po, route oral GAVAGE, vehicle 100 % WATER; for ERYTHROCYTE COUNT / HEMATOCRIT / HEMOGLOBIN / LEUKOCYTE COUNT / MEAN CORPUSCULAR HEMOGLOBIN / MEAN CORPUSCULAR HEMOGLOBIN CONCENTRATION / MEAN CORPUSCULAR VOLUME: tissue Blood; for ALANINE AMINOTRANSFERASE / ALBUMIN / ALKALINE PHOSPHATASE / ASPARTATE AMINOTRANSFERASE / BLOOD UREA NITROGEN / CARBON DIOXIDE / CHLORIDE / CHOLESTEROL / CREATINE PHOSPHOKINASE / CREATININE / GLUCOSE / LACTATE DEHYDROGENASE / LIPASE / PHOSPHORUS / POTASSIUM / SODIUM / TOTAL BILIRUBIN / TOTAL PROTEIN / URIC ACID: tissue Plasma
# [1] = 0 mg/kg, 72 h, dose level Control, time 3 day
# [2] = 0 mg/kg, 120 h, dose level Control, time 5 day
# [3] = 70 mg/kg, 72 h, dose level Low, time 3 day
# [4] = 70 mg/kg, 120 h, dose level Low, time 5 day
compound,measurement,setting,value
COc1cc2c(N3CCN(C(=O)Nc4ccc(OC(C)C)cc4)CC3)ncnc2cc1OCCCN1CCCCC1 [TANDUTINIB],ERYTHROCYTE COUNT,[1],6.09 x10E6/uL
same,HEMATOCRIT,[1],42.62%
same,HEMOGLOBIN,[1],13.07 G/DL
same,LEUKOCYTE COUNT,[1],13.95 x10E3/uL
same,MEAN CORPUSCULAR HEMOGLOBIN,[1],21.47 pg
same,MEAN CORPUSCULAR HEMOGLOBIN CONCENTRATION,[1],30.62 G/DL
same,MEAN CORPUSCULAR VOLUME,[1],70.05 fL
same,ALANINE AMINOTRANSFERASE,[1],47.67 u/L
same,ALBUMIN,[1],3.8 G/DL
same,ALKALINE PHOSPHATASE,[1],369 u/L
same,ASPARTATE AMINOTRANSFERASE,[1],86.17 u/L
same,BLOOD UREA NITROGEN,[1],16.33 mg/dL
same,CARBON DIOXIDE,[1],37.33 mmol/L
same,CHLORIDE,[1],104.83 MEQ/L
same,CHOLESTEROL,[1],79.83 mg/dL
same,CREATINE PHOSPHOKINASE,[1],392.83 u/L
same,CREATININE,[1],0.68 mg/dL
same,GLUCOSE,[1],153.33 mg/dL
same,LACTATE DEHYDROGENASE,[1],426.17 u/L
same,LIPASE,[1],11.67 u/L
same,PHOSPHORUS,[1],11 mg/dL
same,POTASSIUM,[1],6.72 MEQ/L
same,SODIUM,[1],146.67 MEQ/L
same,TOTAL BILIRUBIN,[1],0.55 mg/dL
same,TOTAL PROTEIN,[1],6.32 G/DL
same,URIC ACID,[1],0.0167 mg/dL
same,ERYTHROCYTE COUNT,[2],6.93 x10E6/uL
same,HEMATOCRIT,[2],46.82%
same,HEMOGLOBIN,[2],14.23 G/DL
same,LEUKOCYTE COUNT,[2],13.43 x10E3/uL
same,MEAN CORPUSCULAR HEMOGLOBIN,[2],20.55 pg
same,MEAN CORPUSCULAR HEMOGLOBIN CONCENTRATION,[2],30.38 G/DL
same,MEAN CORPUSCULAR VOLUME,[2],67.62 fL
same,ALANINE AMINOTRANSFERASE,[2],44.67 u/L
same,ALBUMIN,[2],3.8 G/DL
same,ALKALINE PHOSPHATASE,[2],417.83 u/L
same,ASPARTATE AMINOTRANSFERASE,[2],83 u/L
same,BLOOD UREA NITROGEN,[2],15.33 mg/dL
same,CARBON DIOXIDE,[2],38.83 mmol/L
same,CHLORIDE,[2],98.17 MEQ/L
same,CHOLESTEROL,[2],66.83 mg/dL
same,CREATINE PHOSPHOKINASE,[2],383.17 u/L
same,CREATININE,[2],0.72 mg/dL
same,GLUCOSE,[2],156.5 mg/dL
same,LACTATE DEHYDROGENASE,[2],519.67 u/L
same,LIPASE,[2],4.83 u/L
same,PHOSPHORUS,[2],11.07 mg/dL
same,POTASSIUM,[2],6.03 MEQ/L
same,SODIUM,[2],138 MEQ/L
same,TOTAL BILIRUBIN,[2],0.55 mg/dL
same,TOTAL PROTEIN,[2],6.3 G/DL
same,URIC ACID,[2],0.0833 mg/dL
same,ERYTHROCYTE COUNT,[3],6.43 x10E6/uL
same,HEMATOCRIT,[3],44.4%
same,HEMOGLOBIN,[3],13.2 G/DL
same,LEUKOCYTE COUNT,[3],8.32 x10E3/uL
same,MEAN CORPUSCULAR HEMOGLOBIN,[3],20.5 pg
same,MEAN CORPUSCULAR HEMOGLOBIN CONCENTRATION,[3],29.63 G/DL
same,MEAN CORPUSCULAR VOLUME,[3],69.13 fL
same,ALANINE AMINOTRANSFERASE,[3],47 u/L
same,ALBUMIN,[3],3.87 G/DL
same,ALKALINE PHOSPHATASE,[3],436.67 u/L
same,ASPARTATE AMINOTRANSFERASE,[3],80.67 u/L
same,BLOOD UREA NITROGEN,[3],15.33 mg/dL
same,CARBON DIOXIDE,[3],37.33 mmol/L
same,CHLORIDE,[3],107.67 MEQ/L
same,CHOLESTEROL,[3],84.67 mg/dL
same,CREATINE PHOSPHOKINASE,[3],198 u/L
same,CREATININE,[3],0.67 mg/dL
same,GLUCOSE,[3],163.33 mg/dL
same,LACTATE DEHYDROGENASE,[3],277.33 u/L
same,LIPASE,[3],14.33 u/L
same,PHOSPHORUS,[3],9.63 mg/dL
same,POTASSIUM,[3],6.33 MEQ/L
same,SODIUM,[3],149.67 MEQ/L
same,TOTAL BILIRUBIN,[3],0.47 mg/dL
same,TOTAL PROTEIN,[3],6.2 G/DL
same,URIC ACID,[3],0.0333 mg/dL
same,ERYTHROCYTE COUNT,[4],6.62 x10E6/uL
same,HEMATOCRIT,[4],44.77%
same,HEMOGLOBIN,[4],13.67 G/DL
same,LEUKOCYTE COUNT,[4],11.49 x10E3/uL
same,MEAN CORPUSCULAR HEMOGLOBIN,[4],20.67 pg
same,MEAN CORPUSCULAR HEMOGLOBIN CONCENTRATION,[4],30.6 G/DL
same,MEAN CORPUSCULAR VOLUME,[4],67.7 fL
same,ALANINE AMINOTRANSFERASE,[4],36.33 u/L
same,ALBUMIN,[4],3.8 G/DL
same,ALKALINE PHOSPHATASE,[4],323.33 u/L
same,ASPARTATE AMINOTRANSFERASE,[4],69 u/L
same,BLOOD UREA NITROGEN,[4],14.67 mg/dL
same,CARBON DIOXIDE,[4],34.67 mmol/L
same,CHLORIDE,[4],100.67 MEQ/L
same,CHOLESTEROL,[4],73 mg/dL
same,CREATINE PHOSPHOKINASE,[4],199 u/L
same,CREATININE,[4],0.67 mg/dL
same,GLUCOSE,[4],164.33 mg/dL
same,LACTATE DEHYDROGENASE,[4],327 u/L
same,LIPASE,[4],5.67 u/L
same,PHOSPHORUS,[4],11.33 mg/dL
same,POTASSIUM,[4],5.83 MEQ/L
same,SODIUM,[4],139.67 MEQ/L
same,TOTAL BILIRUBIN,[4],0.43 mg/dL
same,TOTAL PROTEIN,[4],6.17 G/DL
same,URIC ACID,[4],0.27 mg/dL

# From ChEMBL document CHEMBL3885881, “DrugMatrix”
